Our source for the TGI and GI50 values is PubChem BioAssay (NCI).

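These data come from cells grown in 96-well plates and exposed to compound for 48 hours at five concentrations. GI50: concentration for 50% inhibition of growth. TGI marks complete inhibition of growth.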

Some test systems named below: HT29 colon; TK-10 renal; PC-3 prostate; SR leukemia; T-47D breast; 786-0 renal; OVCAR-8 ovarian; RXF 393 renal; NCI/ADR-RES ovarian; SF-539 CNS.
Experiment in all cases: inhibition of tumour cell growth, NCI panel, 48 h

Turning to `COc1ccc(C2=C(OC(=O)N(C)C)c3cccn3-c3cc(Cl)ccc3S2)cc1`, the TGI in the assay with HT29 colon, in the assay on TK-10 renal, with PC-3 prostate, in the assay with SR leukemia, in the assay on T-47D breast and with 786-0 renal was > 10 µM each time. Moreover, the TGI with OVCAR-8 ovarian and in the assay with RXF 393 renal was > 10 µM in each case.

For `COc1cccc(CN(C(=O)/C=C\Sc2ccccc2)C(C)(C)C)c1`, the TGI in the assay with HT29 colon, in the assay on TK-10 renal, in the assay with PC-3 prostate, in the assay on NCI/ADR-RES ovarian, in the assay with T-47D breast and in the assay on 786-0 renal was > 100 µM throughout. Also, the TGI with OVCAR-8 ovarian and with SF-539 CNS was > 100 µM throughout.

Take `C=CCOC(=O)CCCCCCCCCCCCCCCOC(=O)C1=C(CCC[C@@H](C)O[Si](C)(C)C(C)(C)C)NC(=O)N2[C@H](CC3(CC/C=C\[C@H](CC)O[Si](C(C)C)(C(C)C)C(C)C)OCCO3)CC[C@H]12`: the TGI in the assay with TK-10 renal, with PC-3 prostate, with NCI/ADR-RES ovarian, in the assay with T-47D breast, in the assay with 786-0 renal and in the assay with SF-539 CNS was > 100 µM each time.

For `CCCCCCOc1ccc(C(=N)N(CCCC)CCCC)c2ccccc12`, the GI50 in the assay on TK-10 renal was 1.57 µM; in the assay with PC-3 prostate it was 1.53 µM; in the assay with NCI/ADR-RES ovarian, 1.43 µM; in the assay with RXF 393 renal it was 1.28 µM. In addition, the TGI came to 3.14 µM with TK-10 renal, 3.05 µM in the assay with PC-3 prostate, 2.79 µM in the assay with NCI/ADR-RES ovarian and 2.74 µM with RXF 393 renal.

`CNc1ccc(S(=O)Nc2ccccc2)cc1` (stereo not given): the TGI was > 100 µM in the assay on HT29 colon; > 100 µM in the assay with TK-10 renal; > 100 µM in the assay with NCI/ADR-RES ovarian; > 100 µM in the assay with SR leukemia; 49.5 µM with T-47D breast; > 100 µM with 786-0 renal. Besides, the TGI with OVCAR-8 ovarian and with SF-539 CNS was > 100 µM each time.

In the case of `CCOC1=C2NC(Cc3ccc(F)cc3)=NC2C(=O)c2ccccc21` (stereo not given), the TGI is 58.7 µM in the assay on HT29 colon; > 100 µM in the assay with TK-10 renal; 47.8 µM with 786-0 renal; 61.9 µM with OVCAR-8 ovarian; 73.5 µM in the assay with RXF 393 renal; 36 µM with SF-539 CNS.

As for `CC(=O)c1ccc(NC(=O)CSc2nc(C)nc3c2sc(=S)n3-c2ccccc2)cc1`, the TGI in the assay on HT29 colon, in the assay on TK-10 renal, in the assay on NCI/ADR-RES ovarian, in the assay on SR leukemia, with T-47D breast and in the assay with 786-0 renal was > 3.16 µM each time. Moreover, the TGI in the assay on OVCAR-8 ovarian is > 10 µM; in the assay on RXF 393 renal it was > 3.16 µM; in the assay with SF-539 CNS it was > 3.16 µM.

Take `c1ccc(OCCSCCCCCCCCCCSCCOc2ccccc2)cc1`: the TGI with TK-10 renal, in the assay on 786-0 renal, in the assay on OVCAR-8 ovarian, with RXF 393 renal and in the assay on SF-539 CNS was > 100 µM each time.

On to `CCOC(=O)C1CCCCc2sc(N)c(C#N)c21` (stereo not given), for which the TGI with HT29 colon, in the assay with TK-10 renal, in the assay with PC-3 prostate, with SR leukemia, in the assay with 786-0 renal and with OVCAR-8 ovarian was > 100 µM throughout. Besides, the TGI in the assay on RXF 393 renal is > 100 µM.

Take `Cc1ccc2c(c1)CC1(C2=O)[C@H](c2ccccc2)C2C(=O)c3ccc(C)cc3C2[C@H]1c1ccccc1` (stereo not given in full): the TGI in the assay on HT29 colon, with TK-10 renal, in the assay with PC-3 prostate, in the assay with SR leukemia, in the assay on T-47D breast and in the assay on 786-0 renal was > 100 µM in each case. Also, the TGI in the assay on OVCAR-8 ovarian, with RXF 393 renal and with SF-539 CNS was > 100 µM throughout.

For `Cc1cc(=O)[nH]c(NNC(C#N)c2ccc([N+](=O)[O-])cc2)n1` (stereo not given), the TGI in the assay with HT29 colon, in the assay with TK-10 renal, in the assay with SR leukemia, in the assay on 786-0 renal, with OVCAR-8 ovarian and in the assay on RXF 393 renal was > 100 µM throughout. For the same molecule, in the assay with SF-539 CNS, the TGI was > 100 µM.

For `C/C(=N/O)c1ccc2c(c1)C(=NO)c1cc(/C(C)=N/O)ccc1-2`, the TGI with HT29 colon was 30 µM; in the assay on SR leukemia, > 100 µM; in the assay with 786-0 renal, 42.3 µM; with OVCAR-8 ovarian it was 32.3 µM; in the assay on RXF 393 renal, 48.8 µM; in the assay on SF-539 CNS, 31.4 µM.

As for `[N-]=[N+]=C(C(=O)C(=[N+]=[N-])C(=O)c1ccccc1)C(=O)c1ccccc1`, the TGI in the assay with HT29 colon, with TK-10 renal, with PC-3 prostate, with NCI/ADR-RES ovarian, with 786-0 renal and with OVCAR-8 ovarian was > 100 µM in each case. Further, the TGI with RXF 393 renal and in the assay on SF-539 CNS was > 100 µM in each case.

Turning to `COc1ccc(-c2c3ccccc3c(-c3ccc(OCCCCCBr)cc3)c3ccccc23)cc1`, the TGI in the assay on HT29 colon, with TK-10 renal, in the assay on SR leukemia, in the assay with OVCAR-8 ovarian and in the assay with SF-539 CNS was > 100 µM in each case.

Turning to `CC(C)(C)c1ccc(-c2nnc(-c3cc(C#N)cc(-c4nnc(-c5ccc(C(C)(C)C)cc5)o4)c3)o2)cc1`, the TGI in the assay with HT29 colon, with TK-10 renal, with PC-3 prostate, with NCI/ADR-RES ovarian, in the assay on T-47D breast and with 786-0 renal was > 100 µM in each case. The TGI with OVCAR-8 ovarian was > 100 µM; with RXF 393 renal, 96.9 µM.

Turning to `CCOc1ccc(-c2oc(/C=N/NS(=O)(=O)c3ccc(C)cc3)c([N+](=O)[O-])c2-c2ccc(OCC)cc2)cc1`, the TGI in the assay on HT29 colon stood at 20.7 µM; with TK-10 renal, 70.3 µM; in the assay on 786-0 renal, 29.7 µM; with OVCAR-8 ovarian, 50 µM; in the assay on RXF 393 renal, 29.3 µM; in the assay with SF-539 CNS it was 30.7 µM.

`CC(=O)Nc1ccc(C(=O)N2N=C(C)/C(=C/c3ccc(O)cc3)C2=O)cc1`: the TGI in the assay on HT29 colon, with TK-10 renal, in the assay with SR leukemia, in the assay with 786-0 renal, in the assay on OVCAR-8 ovarian and in the assay with SF-539 CNS was > 100 µM each time.
